The source of these data is patent US20240391931A1 (Bristol-Myers Squibb Company, priority 2021, published 2024).

Test [1] concerns the target T1, HER2 WT (Homo sapiens, UniProt P04626).
T1 construct: purchased ProQinase, Freiburg, Germany ERBB2 0108-0000-1
In words: Enzymatic assay HER2 WT (method a). In kind it is biochemical. The following applies: [HER2 WT]=12.5 nM, [ATP]=25 μM, [Peptide 22]=1 μM. Put shortly: (§1)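 Initial rates over 0–3600 s, read as substrate-to-product conversion by capillary electrophoresis, were converted to percent inhibition and fitted with a variable-slope curve to give IC50. Conditions: EGFR WT 2 nM with 1 mM ATP; HER2 YVMA 5 nM or HER2 WT 12.5 nM, each with 25 μM ATP. All used 1 μM Peptide 22 in pH 7.5 HEPES/Mn/Mg buffer.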

The target in test [2] is T2, EGFR WT (Homo sapiens, UniProt P00533).
T2 construct: purchased Thermo Fisher, Carlsbad, CA ERBB1 PR7295B
In words: Enzymatic assay EGFR WT (method c). The conditions noted are these: [EGFR WT]=2 nM, [ATP]=1 mM, [Peptide 22]=1 μM. In kind it is biochemical. The gist of the method:
as §1

Test [3] has as its target EGFR (Homo sapiens, UniProt P00533). In words: EGFR signaling (pEGFR Tyr1068/total EGFR MSD) in A431 cells. The following applies: for EC50: A431 cells, read-out: A431 pEGFR EC50; for Selectivity A431 EC50/BT474 EC50: ratio A431 pEGFR EC50 to BT474 pHER2 EC50; for Selectivity A431 EC50/HEKYVMA EC50: ratio A431 pEGFR EC50 to HEK YVMA pHER2 EC50. In kind it is cell-based. Also on record: endogenous in cells; host or cells: A431, N87. The gist of the method: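 EC50 was fitted with variable Hill slope from MSD pTyr1068/total EGFR ratios, expressed as % DMSO control. A431 cells were starved overnight, then exposed 1.5 h to eight concentrations from 10 to 0.005 μM in 1% FBS before a 10-min 100 ng/mL EGF pulse.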

The target of test [4] is HER2YVMA (Homo sapiens, UniProt P04626, INS775YVMA). The experiment in a line: Enzymatic assay HER2YVMA (method b). The following applies: [HER2YVMA]=5 nM, [ATP]=25 μM, [Peptide 22]=1 μM. Type of test: biochemical. Also on record: purchased Viva biotech, Shanghai, China custom purification. Put shortly:
as §1

T1 sequence (P04626 23-1255): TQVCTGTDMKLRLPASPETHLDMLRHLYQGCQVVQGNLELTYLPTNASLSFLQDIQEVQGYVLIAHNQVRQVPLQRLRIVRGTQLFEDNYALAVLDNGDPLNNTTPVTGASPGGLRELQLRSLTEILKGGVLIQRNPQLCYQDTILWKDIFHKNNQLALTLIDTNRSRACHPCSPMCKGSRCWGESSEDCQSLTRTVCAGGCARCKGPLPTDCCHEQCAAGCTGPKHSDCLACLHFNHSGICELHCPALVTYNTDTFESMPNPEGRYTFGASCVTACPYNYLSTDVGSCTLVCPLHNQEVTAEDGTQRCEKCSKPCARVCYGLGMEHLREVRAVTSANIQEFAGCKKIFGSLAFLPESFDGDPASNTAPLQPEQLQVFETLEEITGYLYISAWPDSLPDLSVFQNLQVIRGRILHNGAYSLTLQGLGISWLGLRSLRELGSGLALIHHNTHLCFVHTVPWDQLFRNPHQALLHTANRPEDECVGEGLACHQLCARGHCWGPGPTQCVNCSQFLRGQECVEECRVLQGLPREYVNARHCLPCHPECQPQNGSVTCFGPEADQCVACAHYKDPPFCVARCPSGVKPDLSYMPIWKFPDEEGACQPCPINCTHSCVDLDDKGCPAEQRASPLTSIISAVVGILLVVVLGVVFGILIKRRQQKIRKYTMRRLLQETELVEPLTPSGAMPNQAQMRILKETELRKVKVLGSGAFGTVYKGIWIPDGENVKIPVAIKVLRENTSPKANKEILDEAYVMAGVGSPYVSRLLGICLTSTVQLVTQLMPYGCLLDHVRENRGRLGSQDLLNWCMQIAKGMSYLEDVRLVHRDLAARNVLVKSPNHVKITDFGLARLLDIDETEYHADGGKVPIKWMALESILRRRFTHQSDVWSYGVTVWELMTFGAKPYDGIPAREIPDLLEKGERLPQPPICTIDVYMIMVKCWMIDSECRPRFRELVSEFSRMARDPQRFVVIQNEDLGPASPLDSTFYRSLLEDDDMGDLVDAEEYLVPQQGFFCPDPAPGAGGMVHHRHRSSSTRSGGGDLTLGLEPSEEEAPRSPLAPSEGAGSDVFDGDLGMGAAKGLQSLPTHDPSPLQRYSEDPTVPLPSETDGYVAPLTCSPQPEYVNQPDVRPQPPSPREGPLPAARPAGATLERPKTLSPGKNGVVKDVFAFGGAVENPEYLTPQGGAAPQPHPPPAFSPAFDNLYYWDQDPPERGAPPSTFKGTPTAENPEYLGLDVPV
T2 sequence (P00533 25-1210): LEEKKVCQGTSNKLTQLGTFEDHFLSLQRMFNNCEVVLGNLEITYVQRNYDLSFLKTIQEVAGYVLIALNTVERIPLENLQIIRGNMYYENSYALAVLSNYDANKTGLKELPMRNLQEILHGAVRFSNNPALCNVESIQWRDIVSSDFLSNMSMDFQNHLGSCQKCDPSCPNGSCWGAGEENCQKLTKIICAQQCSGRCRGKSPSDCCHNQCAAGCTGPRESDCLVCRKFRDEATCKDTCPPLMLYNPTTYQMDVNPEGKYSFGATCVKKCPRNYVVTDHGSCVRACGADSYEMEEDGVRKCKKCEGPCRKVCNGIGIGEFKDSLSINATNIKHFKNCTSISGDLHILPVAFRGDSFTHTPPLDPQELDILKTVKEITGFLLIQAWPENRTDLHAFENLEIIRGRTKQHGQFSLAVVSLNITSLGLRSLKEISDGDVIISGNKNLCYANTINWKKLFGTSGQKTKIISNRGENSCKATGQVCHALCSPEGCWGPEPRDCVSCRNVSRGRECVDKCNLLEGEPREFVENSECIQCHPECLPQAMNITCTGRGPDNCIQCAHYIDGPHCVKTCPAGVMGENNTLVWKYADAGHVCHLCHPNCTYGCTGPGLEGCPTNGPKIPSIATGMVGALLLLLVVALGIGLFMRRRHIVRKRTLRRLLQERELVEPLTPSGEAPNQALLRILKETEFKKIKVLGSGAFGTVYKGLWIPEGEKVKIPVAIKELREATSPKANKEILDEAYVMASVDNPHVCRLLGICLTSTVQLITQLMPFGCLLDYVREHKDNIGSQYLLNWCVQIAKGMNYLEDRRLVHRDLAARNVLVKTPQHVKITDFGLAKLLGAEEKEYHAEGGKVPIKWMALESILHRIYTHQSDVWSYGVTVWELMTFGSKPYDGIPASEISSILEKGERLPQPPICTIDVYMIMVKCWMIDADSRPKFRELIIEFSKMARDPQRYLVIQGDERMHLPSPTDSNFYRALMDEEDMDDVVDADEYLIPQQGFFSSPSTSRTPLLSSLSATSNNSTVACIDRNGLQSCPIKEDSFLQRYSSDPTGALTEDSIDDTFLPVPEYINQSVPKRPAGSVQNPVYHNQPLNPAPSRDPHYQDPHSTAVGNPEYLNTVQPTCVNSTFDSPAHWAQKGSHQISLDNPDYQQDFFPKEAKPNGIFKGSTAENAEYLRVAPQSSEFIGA
Chain of EGFR (P00533 25-1210): as above
Chain of HER2YVMA (P04626 with tags, fused parts or gaps INS775YVMA): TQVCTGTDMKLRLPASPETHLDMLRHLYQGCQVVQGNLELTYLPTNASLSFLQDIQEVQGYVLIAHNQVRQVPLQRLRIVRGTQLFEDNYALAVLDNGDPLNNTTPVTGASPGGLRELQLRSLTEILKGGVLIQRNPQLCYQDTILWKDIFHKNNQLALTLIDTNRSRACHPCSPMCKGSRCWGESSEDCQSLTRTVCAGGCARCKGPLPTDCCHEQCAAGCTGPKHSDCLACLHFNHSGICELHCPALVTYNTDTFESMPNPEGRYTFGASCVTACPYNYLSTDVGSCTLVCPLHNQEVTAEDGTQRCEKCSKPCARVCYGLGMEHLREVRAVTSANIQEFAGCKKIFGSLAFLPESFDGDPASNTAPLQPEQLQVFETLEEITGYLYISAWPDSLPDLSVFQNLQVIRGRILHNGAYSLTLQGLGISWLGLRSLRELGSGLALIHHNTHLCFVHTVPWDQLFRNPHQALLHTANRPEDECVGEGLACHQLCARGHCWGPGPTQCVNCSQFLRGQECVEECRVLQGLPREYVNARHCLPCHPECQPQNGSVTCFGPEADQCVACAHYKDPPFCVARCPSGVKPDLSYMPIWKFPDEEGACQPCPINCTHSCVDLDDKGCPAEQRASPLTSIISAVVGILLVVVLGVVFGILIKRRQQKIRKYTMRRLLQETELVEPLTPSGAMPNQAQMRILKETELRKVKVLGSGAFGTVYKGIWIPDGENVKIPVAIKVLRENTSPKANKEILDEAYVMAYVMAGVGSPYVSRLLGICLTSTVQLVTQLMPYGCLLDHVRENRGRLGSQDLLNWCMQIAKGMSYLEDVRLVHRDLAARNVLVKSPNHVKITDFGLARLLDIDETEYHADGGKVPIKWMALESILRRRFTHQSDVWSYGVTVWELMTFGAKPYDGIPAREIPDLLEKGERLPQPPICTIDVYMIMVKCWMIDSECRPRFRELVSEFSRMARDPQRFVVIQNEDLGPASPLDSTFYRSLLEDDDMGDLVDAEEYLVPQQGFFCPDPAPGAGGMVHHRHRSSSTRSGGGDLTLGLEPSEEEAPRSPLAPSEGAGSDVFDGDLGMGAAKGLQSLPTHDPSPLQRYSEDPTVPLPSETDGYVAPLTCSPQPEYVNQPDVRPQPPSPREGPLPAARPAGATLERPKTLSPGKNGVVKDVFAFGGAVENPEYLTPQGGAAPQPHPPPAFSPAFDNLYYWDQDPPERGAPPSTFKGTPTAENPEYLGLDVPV

For `Cc1cc(Nc2ncnc3sc4c(c23)CN(C(=O)/C=C/CN(C)C)C4)ccc1Oc1ccn2ncnc2c1` [Compound 130, (E)-1-(4-((4-([1,2,4]Triazolo[1,5-a]pyridin-7-yloxy)-3-methylphenyl)amino)-5H-pyrrolo[3′,4′:4,5]thieno[2,3-d]pyrimidin-6(7H)-yl)-4-(dimethylamino)but-2-en-1-one], the IC50 in test [1] is less than 100 nM; in test [2], greater than 10000 nM; in test [4], less than 100 nM. Also, the EC50 in test [3] is 1000 to 10000 nM. Besides, the “Selectivity A431 EC50/BT474 EC50” value in test [3] is on record as “A (A: ≥100)”. Besides, the “Selectivity A431 EC50/HEKYVMA EC50” value in test [3] is recorded as “A (A: ≥100)”.

Take `Cc1ccc(Oc2ccc(Nc3ncnc4sc5c(c34)C(C)CN(C(=O)/C=C/CN3CCOCC3)C5)cc2C)cn1` (stereo not drawn) [Compound 174, (E)-1-(5-Methyl-4-((3-methyl-4-((6-methylpyridin-3-yl)oxy)phenyl)amino)-5,6-dihydropyrido[4′,3′:4,5]thieno[2,3-d]pyrimidin-7(8H)-yl)-4-morpholinobut-2-en-1-one]: the IC50 in test [1] is 100 to 1000 nM; in test [2], greater than 10000 nM; in test [4], less than 100 nM. Further, the EC50 in test [3] lay within 100 to 1000 nM. Further, the “Selectivity A431 EC50/BT474 EC50” value in test [3] is “B (B: ≥ 20 and < 100)”. Besides, in test [3], the “Selectivity A431 EC50/HEKYVMA EC50” value is “C (C: ≥ 10 and < 20)”.

The compound `C=CC(=O)N1Cc2sc3ncnc(Nc4ccc(Oc5ccc(C)nc5)c(C)c4)c3c2C(C)C1` (single isomer, unassigned) [Compound 146] registered an IC50 in test [1] of less than 100 nM. In test [2], this compound had a concentration for half-maximal inhibition (IC50) of 1000 to 10000 nM. For the same compound, in test [3], the EC50 is less than 100 nM; the “Selectivity A431 EC50/BT474 EC50” value is “C (C: ≥ 10 and < 20)”; the “Selectivity A431 EC50/HEKYVMA EC50” value is “D (D: ≥ 5 and < 10)”. In addition, the IC50 in test [4] was less than 100 nM.

Take `Cc1ccc(Oc2ccc(Nc3ncnc4sc5c(c34)CCN(C(=O)/C=C/CN3CCCCC3(C)CO)C5)cc2C)cn1` (stereo not drawn) [Compound 119]: in test [1], the half-inhibitory concentration (IC50) was less than 100 nM. For the same compound, the IC50 in test [2] was greater than 10000 nM. Further, in test [3], the EC50 fell in the range of 100 to 1000 nM; the “Selectivity A431 EC50/BT474 EC50” value is “B (B: ≥ 20 and < 100)”; the “Selectivity A431 EC50/HEKYVMA EC50” value is “B (B: ≥ 20 and < 100)”. In test [4], this compound returned an IC50 of less than 100 nM.

On to `Cc1ccc(Oc2ccc(Nc3ncnc4sc5c(c34)CN(C(=O)C=CCN(C)C)C5C)cc2C)cn1` (single isomer, unassigned) [Compound 169], for which the IC50 in test [1] is less than 100 nM. In test [2], this compound came in with an IC50 greater than 10000 nM. In test [3], the EC50 was in the range of 100 to 1000 nM; the “Selectivity A431 EC50/BT474 EC50” value was “C (C: ≥ 10 and < 20)”; the “Selectivity A431 EC50/HEKYVMA EC50” value was “D (D: ≥ 5 and < 10)”. The 50% inhibitory concentration (IC50) in test [4] is less than 100 nM.

Take `Cc1ccc(Oc2ccc(Nc3ncnc4sc5c(c34)CCN(C(=O)/C=C/CN3CC[C@H](F)C3)C5)cc2C)cn1` [Compound 124]: the IC50 in test [1] is less than 100 nM. The same compound had an IC50 in test [2] greater than 10000 nM. For the same compound, in test [3], the EC50 was less than 100 nM; the “Selectivity A431 EC50/BT474 EC50” value is “B (B: ≥ 20 and < 100)”; the “Selectivity A431 EC50/HEKYVMA EC50” value is “C (C: ≥ 10 and < 20)”. The compound also had an IC50 in test [4] of less than 100 nM.

`Cc1ccc(Oc2ccc(Nc3ncnc4sc5c(c34)C(C)CN(C(=O)C=CCN3CCOCC3)C5)cc2C)cn1` (single isomer, unassigned) [Compound 176]: the IC50 in test [1] was in the range of 100 to 1000 nM. The compound also had an IC50 in test [2] greater than 10000 nM. Also, in test [3], the EC50 is 1000 to 10000 nM; the “Selectivity A431 EC50/BT474 EC50” value is “B (B: ≥ 20 and < 100)”; the “Selectivity A431 EC50/HEKYVMA EC50” value is “B (B: ≥ 20 and < 100)”. In test [4], this compound came in with an IC50 of 100 to 1000 nM.

In the case of `CC[C@H](NC/C=C/C(=O)N1CCc2c(sc3ncnc(Nc4ccc(Oc5ccc(C)nc5)c(C)c4)c23)C1)C(F)(F)F` [Compound 122], the IC50 in test [1] is less than 100 nM. Besides, in test [2], the IC50 was greater than 10000 nM. In addition, in test [3], the EC50 is 100 to 1000 nM; the “Selectivity A431 EC50/BT474 EC50” value is “B (B: ≥ 20 and < 100)”; the “Selectivity A431 EC50/HEKYVMA EC50” value is “B (B: ≥ 20 and < 100)”. The same compound came in with an IC50 in test [4] of less than 100 nM.

In turn, `Cc1ccc(Oc2ccc(Nc3ncnc4sc5c(c34)CN(C(=O)/C=C/CN(C)C)C5)cc2Cl)cn1` [Compound 129, (E)-1-(4-((3-Chloro-4-((6-methylpyridin-3-yl)oxy)phenyl)amino)-5H-pyrrolo[3′,4′:4,5]thieno[2,3-d]pyrimidin-6(7H)-yl)-4-(dimethylamino)but-2-en-1-one] came in with an IC50 in test [1] of less than 100 nM. In addition, in test [2], the IC50 is greater than 10000 nM. Moreover, in test [3], the EC50 lay within 100 to 1000 nM; the “Selectivity A431 EC50/BT474 EC50” value is “B (B: ≥ 20 and < 100)”; the “Selectivity A431 EC50/HEKYVMA EC50” value is “B (B: ≥ 20 and < 100)”. The same compound yielded an IC50 in test [4] of less than 100 nM.

Regarding `Cc1ccc(Oc2ccc(Nc3ncnc4sc5c(c34)CCN(C(=O)/C=C/CN(C)C)C5)cc2C)cn1` [Compound 8, (E)-4-(Dimethylamino)-1-(4-((3-methyl-4-((6-methylpyridin-3-yl)oxy)phenyl)amino)-5,6-dihydropyrido[4′,3′:4,5]thieno[2,3-d]pyrimidin-7(8H)-yl)but-2-en-1-one], in test [1], the IC50 is less than 100 nM. The IC50 in test [2] fell in the range of 1000 to 10000 nM. Further, in test [3], the EC50 is less than 100 nM; the “Selectivity A431 EC50/BT474 EC50” value was “C (C: ≥ 10 and < 20)”; the “Selectivity A431 EC50/HEKYVMA EC50” value is “C (C: ≥ 10 and < 20)”. This compound displayed an IC50 in test [4] of less than 100 nM.

For the compound `Cc1ccc(Oc2ccc(Nc3ncnc4sc5c(c34)CCN(C(=O)/C=C/CN3CC4CC4(CO)C3)C5)cc2C)cn1` (stereo not drawn) [Compound 118], the IC50 in test [1] is less than 100 nM. The compound also had an IC50 in test [2] greater than 10000 nM. Moreover, in test [3], the EC50 fell in the range of 100 to 1000 nM; the “Selectivity A431 EC50/BT474 EC50” value is on record as “A (A: ≥100)”; the “Selectivity A431 EC50/HEKYVMA EC50” value was “B (B: ≥ 20 and < 100)”. In addition, the IC50 in test [4] was less than 100 nM.

`Cc1ccc(Oc2ccc(Nc3ncnc4sc5c(c34)C(C)CN(C(=O)C=CCN3CCOCC3)C5)cc2C)cn1` (single isomer, unassigned) [Compound 177] gave an IC50 in test [1] of less than 100 nM. Also, in test [2], the IC50 is greater than 10000 nM. In addition, in test [3], the concentration giving a half-maximal response (EC50) lay within 100 to 1000 nM; the “Selectivity A431 EC50/BT474 EC50” value is “C (C: ≥ 10 and < 20)”; the “Selectivity A431 EC50/HEKYVMA EC50” value was “D (D: ≥ 5 and < 10)”. Moreover, the IC50 in test [4] is less than 100 nM.

With `Cc1ccc(Oc2ccc(Nc3ncnc4sc5c(c34)CCN(C(=O)/C=C/CN3CC(F)(CO)C3)C5)cc2C)cn1` [Compound 151], the figures for the IC50 in test [1], in test [2] and in test [4] were less than 100 nM, greater than 10000 nM and less than 100 nM, respectively. Moreover, the EC50 in test [3] was in the range of 100 to 1000 nM. Besides, the “Selectivity A431 EC50/BT474 EC50” value in test [3] was “B (B: ≥ 20 and < 100)”. The “Selectivity A431 EC50/HEKYVMA EC50” value in test [3] was “E (E: >1 and < 5)”.

Regarding `COc1ccc(Oc2ccc(Nc3ncnc4sc5c(c34)CCN(C(=O)/C=C/CN(C)C(C)(C)C)C5)cc2C)cn1` [Compound 163], the IC50 in test [1] was less than 100 nM; in test [2], greater than 10000 nM; in test [4], less than 100 nM. The EC50 in test [3] is less than 100 nM. Moreover, in test [3], the “Selectivity A431 EC50/BT474 EC50” value was “D (D: ≥ 5 and < 10)”. Besides, the “Selectivity A431 EC50/HEKYVMA EC50” value in test [3] was “E (E: >1 and < 5)”.

Take `Cc1ccc(Oc2ccc(Nc3ncnc4sc5c(c34)CCN(C(=O)/C=C/CN3CC(CO)(CO)C3)C5)cc2C)cn1` [Compound 134]: in test [1], the IC50 is less than 100 nM. This compound showed an IC50 in test [2] of 1000 to 10000 nM. Further, in test [3], the EC50 lay in the range of 1000 to 10000 nM; the “Selectivity A431 EC50/BT474 EC50” value was “B (B: ≥ 20 and < 100)”; the “Selectivity A431 EC50/HEKYVMA EC50” value is “B (B: ≥ 20 and < 100)”. In test [4], the IC50 is less than 100 nM.

Usually IC50 stands for the concentration that inhibits the measured activity by half. The low end stands for greater potency in that assay, the high end for weaker potency in that assay. A word on the EC50: it is the concentration giving half of the maximal effect.
